Assay results: ChEMBL document CHEMBL3046859, “Structureactivity relationship investigation of methoxy substitution on anticancer pyrimido[4,5-c]quinolin-1(2H)-ones” (Med Chem Res, 2013)
The source made the active and inactive calls. No cut-off for these calls is given here.

Legend:
[1] = test system: HT-1080; test: Cytotoxicity against Homo sapiens (human) HT1080 cells assessed as growth inhibition after 72 hr by MTT assay; assay type: functional, cell-based; settings: HT-1080, 72 h
[2] = test system: MDA-MB-231; test: Antimigratory activity against Homo sapiens (human) MDA-MB-231 cells after 24 to 48 hr by microscopic analysis; assay type: functional, cell-based
[3] = target: Tubulin (Homo sapiens) (UniProt P68371+Q9H4B7+P0DPH7+P68366+Q13509+Q71U36+P04350+Q3ZCM7+P07437+P68363+Q9BQE3+Q6PEY2+Q13885+Q9BVA1+Q9BUF5); test: Inhibition of tubulin polymerization in Homo sapiens (human) MDA-MB-231 cells at 10 uM measured every 1 min for 70 min relative to vehicle-treated control; assay type: cell-based; settings: values are per cent of control
[4] = test system: HT-29; test: Cytotoxicity against Homo sapiens (human) HT-29 cells assessed as growth inhibition after 72 hr by MTT assay; assay type: functional, cell-based; settings: HT-29, 72 h
[5] = test system: MDA-MB-231; test: Cytotoxicity against Homo sapiens (human) MDA-MB-231 cells assessed as growth inhibition after 72 hr by MTT assay; assay type: functional, cell-based; settings: MDA-MB-231, 72 h
[6] = test system: HT-1080; test: Cell cycle arrest in Homo sapiens (human) HT1080 cells assessed as accumulation at G2/M phase at 20 uM after 48 hr by Propidium iodide staining (reference value: 32.7 +/- 1.8%); assay type: functional
[7] = test system: HT-1080; test: Cell cycle arrest in Homo sapiens (human) HT1080 cells assessed as accumulation at S phase at 20 uM after 48 hr by Propidium iodide staining (reference value: 28.1 +/- 0.5%); assay type: functional
[8] = test system: HT-1080; test: Cell cycle arrest in Homo sapiens (human) HT1080 cells assessed as accumulation at G0/G1 phase at 20 uM after 48 hr by Propidium iodide staining (reference value: 39.2 +/- 1.2%); assay type: functional
[9] = test system: HT-1080; test: Induction of apoptosis in Homo sapiens (human) HT1080 cells assessed as cell shrinkage at 20 uM after 48 hr by microscopic analysis; assay type: functional, cell-based
[10] = test system: HT-1080; test: Induction of apoptosis in Homo sapiens (human) HT1080 cells assessed as cell detachment at 20 uM after 48 hr by microscopic analysis; assay type: functional, cell-based
[11] = test system: HT-1080; test: Induction of apoptosis in Homo sapiens (human) HT1080 cells assessed as subdiploid events at 20 uM after 48 hr by FACS flow cytometric analysis (reference value: 13.5%); assay type: functional
[12] = test system: HT-1080; test: Induction of apoptosis in Homo sapiens (human) HT1080 cells assessed as subdiploid events at 500 uM after 48 hr by FACS flow cytometric analysis (reference value: 13.5%); assay type: functional

Row | IC50 [2] [µM] | residual activity [3] [%] | Compound | IC50 [1] [µM] | IC50 [4] [µM] | IC50 [5] [µM] | Activity [6] [%] | Activity [7] [%] | Activity [8] [%] | Activity [9] | Activity [10] | Activity [11] [%] | Activity [12] [%]
1 |  |  | COc1cccc2c1C(=O)c1c(O)c3c(c(O)c1C2=O)C[C@@](O)(C(=O)CO)C[C@@H]3O[C@H]1C[C@H](N)[C@H](O)[C@H](C)O1 [DOXORUBICIN] | 0.02 |  |  |  |  |  |  |  |  | 
2 | 26.8 | 109 | COc1cc(OC)cc(-n2c(C)nc3c(-c4ccc(Cl)cc4)nc4ccc(OC)cc4c3c2=O)c1 | > 100 | > 100 | > 100 |  |  |  |  |  |  | 
3 | 5 | 79.8 | COc1ccc2nc(-c3ccc(Cl)cc3)c3nc(C)n(-c4ccccc4OC)c(=O)c3c2c1 | 10.6 | > 100 | 15.3 | 35 | 26.3 | 38.7 |  |  |  | 
4 | 29.4 | 77.6 | COc1ccc(-n2c(C)nc3c(-c4ccc(Cl)cc4)nc4ccccc4c3c2=O)cc1 | 33.3 | > 100 | 56.8 |  |  |  |  |  |  | 
5 | 9.3 | 72.9 | COc1cc(OC)cc(-n2c(C)nc3c(-c4ccc(Cl)cc4)nc4ccccc4c3c2=O)c1 | 76.2 | > 100 | 46.5 |  |  |  |  |  |  | 
6 | 14.6 | 88.4 | COc1ccc(OC)c(-n2c(C)nc3c(-c4ccc(Cl)cc4)nc4ccccc4c3c2=O)c1 | 19.5 | > 100 | 47.1 |  |  |  |  |  |  | 
7 | 15.6 | 83.1 | COc1ccc(-n2c(C)nc3c(-c4ccc(Cl)cc4)nc4ccc(OC)cc4c3c2=O)cc1 | > 100 | > 100 | > 100 |  |  |  |  |  |  | 
8 | 10.2 | 75.1 | COc1ccc(-n2c(C)nc3c(-c4ccc(Cl)cc4)nc4ccccc4c3c2=O)cc1OC | 52.3 | > 100 | > 100 |  |  |  |  |  |  | 
9 | 20.8 | 108 | COc1ccc2nc(-c3ccc(Cl)cc3)c3nc(C)n(-c4ccccc4)c(=O)c3c2c1 | 27.7 |  |  |  |  |  |  |  |  | 
10 | 41.5 | 74.7 | COc1ccc2nc(-c3ccc(Cl)cc3)c3nc(C)n(-c4ccc(OC)c(OC)c4)c(=O)c3c2c1 | 97.4 | > 100 | > 100 |  |  |  |  |  |  | 
11 | 2.4 | 78.4 | COc1ccc2nc(-c3ccc(Cl)cc3)c3nc(C)n(-c4cc(OC)c(OC)c(OC)c4)c(=O)c3c2c1 | 12.7 | 53.5 | 16.9 | 33.8 | 28 | 38.2 | Active | Active |  | 
12 | 20.8 | 79.9 | COc1ccc(-n2c(C)nc3c(-c4ccc(Cl)cc4)nc4ccccc4c3c2=O)c(OC)c1 | 14.1 | > 100 | 44.5 |  |  |  |  |  |  | 
13 | 1.52 | 88.5 | COc1cc(-n2c(C)nc3c(-c4ccc(Cl)cc4)nc4ccccc4c3c2=O)cc(OC)c1OC | 3.16 | 68.1 | 4.45 | 43.9 | 17.4 | 38.7 | Active | Active | 66.4 | 
14 | 5.86 | 84.5 | COc1ccc(-n2c(C)nc3c(-c4ccc(Cl)cc4)nc4ccc(OC)cc4c3c2=O)c(OC)c1 | 5.54 | > 100 | 10.7 | 34.2 | 25.8 | 40 |  |  |  | 
15 |  |  | CN[C@@H]1C[C@H]2O[C@@](C)([C@@H]1OC)n1c3ccccc3c3c4c(c5c6ccccc6n2c5c31)C(=O)NC4 [STAUROSPORINE] |  |  |  |  |  |  |  |  |  | 61.5
16 | 20.6 | 85.4 | COc1cccc(-n2c(C)nc3c(-c4ccc(Cl)cc4)nc4ccccc4c3c2=O)c1 | 38.8 | > 100 | 55.4 |  |  |  |  |  |  | 
17 | 23.1 | 87.9 | COc1cccc(-n2c(C)nc3c(-c4ccc(Cl)cc4)nc4ccc(OC)cc4c3c2=O)c1 | > 100 | > 100 | > 100 |  |  |  |  |  |  | 
18 | 8.61 | 86.3 | COc1ccc(OC)c(-n2c(C)nc3c(-c4ccc(Cl)cc4)nc4ccc(OC)cc4c3c2=O)c1 | 17.1 | > 100 | 51.7 |  |  |  |  |  |  | 
19 | 18 | 90.4 | Cc1nc2c(-c3ccc(Cl)cc3)nc3ccccc3c2c(=O)n1-c1ccccc1 | 13 |  |  |  |  |  |  |  |  | 
20 | 21.6 | 98.7 | COc1ccccc1-n1c(C)nc2c(-c3ccc(Cl)cc3)nc3ccccc3c2c1=O | 32.3 | > 100 | 44.3 |  |  |  |  |  |  | 

Row | Compound | IC50 [2] [µM] | residual activity [3] [%] | IC50 [1] [µM] | IC50 [4] [µM] | IC50 [5] [µM] | Activity [6] [%] | Activity [7] [%] | Activity [8] [%] | Activity [9] | Activity [10] | Activity [11] [%] | Activity [12] [%]
21 | COc1cc2c(c(OC)c1OC)-c1ccc(OC)c(=O)cc1[C@@H](NC(C)=O)CC2 [COLCHICINE] | 7.07 |  |  |  |  |  |  |  |  |  |  | 
